# Laboratory results published in patent publication US9302992B2, “Multifunctional quinoline derivatives as anti-neurodegenerative agents” (ANNJI PHARMACEUTICAL CO., LTD., priority 2013, dated 2016).
# Legend:
# [1] = system: undifferentiated PC12 cells; experiment: Neurite outgrowth on undifferentiated PC12 cells; type: cell-based; conditions: FIG. 4
# fAβ-lesioned mice = experiment: Rotarod test in fAβ-lesioned mice; type: in vivo; conditions: FIG. 6; for riding time in rotarod test: 10 mg/kg, fAβ-lesioned mice; for performance of learning: fAβ-induced memory-deficit mice
# mice = experiment: Animal model: memory and toxicity in mice; type: in vivo; conditions: 1 to 100 mg/kg, preferable 1 to 10 mg/kg, i.p. daily; for toxicity: mice
# Aβ = Aβ (Homo sapiens, UniProt P05067); experiment: Aβ aggregation / fAβ formation, microscopy analysis after Congo red staining; type: biochemical
# Chain of Aβ (P05067 672-711 limits assumed): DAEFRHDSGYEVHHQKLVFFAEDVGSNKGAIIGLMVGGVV
# preformed Aβ aggregates = preformed Aβ aggregates (Homo sapiens, UniProt P05067); experiment: Dissolution of preformed Aβ aggregates; type: biochemical; conditions: FIG. 1B and FIG. 2
# Chain of preformed Aβ aggregates (P05067 672-711 limits assumed): as above
# neuron cells = experiment: Neuroprotection of neuron cells against fAβ; type: cell-based; conditions: for protection of neuron cells from zinc-induced fAβ: FIGS. 3A-B
# Description: FIGS. 3A-B show compound C12 acting as a neuroprotective agent targeting fAβ.
# (§1) Only compound C12 was effective toward zinc-free aggregates (FIG. 3B). […] Mice were assessed for the total duration of movement (FIG. 7A) and total duration of distance (FIG. 7B) to climb onto the hidden platform; and also quantified the appearance to target zone (FIG. 7C) indicating the relative time (compared to total time in swimming) to entry into a zone around the hidden platform; and for average swimming velocity (FIG. 7D) to discriminate enhanced memory from enhanced motor activity.
# [2] = system: memory-deficit fAβ-lesioned mice; experiment: Morris water maze test in memory-deficit fAβ-lesioned mice; type: in vivo; conditions: FIGS. 7A-D
# Description: FIGS. 7A-D show the results of Morris water maze test.
# as §1
# [3] = system: memory-deficit fAβ-lesioned mice; experiment: GAP43 level and fAβ level in memory-deficit fAβ-lesioned mice; type: in vivo; conditions: FIG. 8
SMILES,neurite outgrowth [1],riding time in rotarod test (fAβ-lesioned mice),performance of learning (fAβ-lesioned mice),memory of mice (mice),toxicity (mice),protection of neuron cells from zinc-induced fAβ (neuron cells),further results
"COc1cccc2ccc(CCCCCCCCCCCO)nc12 [C3, 11-(8-methoxyquinolin-2-yl)undecan-1-ol]",induction of neurite outgrowth,,,,,,
"OCCCCCCCCCCCc1ccc2cccc(O)c2n1 [B3, 2-(11-hydroxyundecyl)quinolin-8-ol]",induction of neurite outgrowth,increased riding time,improved performance of learning,improve memory of mice,without causing significant toxicity,,
"CCOc1cccc2ccc(CCCCCCCCCCCO)nc12 [D3, 11-(8-ethoxyquinolin-2-yl)undecan-1-ol]",induction of neurite outgrowth,,,,,,
"COc1ccc(Cl)c2ccc(CCCCCCCCCCCO)nc12 [C12, 11-(5-chloro-8-methoxyquinolin-2-yl)undecan-1-ol]",,increased riding time,improved performance of learning,improve memory of mice,without causing significant toxicity,protected,"polymerization of Aβ (Aβ; in the absence of zinc ions, FIG. 2): inhibiting polymerization of Aβ; Aβ aggregation (Aβ; in the presence or absence of zinc ions, Congo red staining, FIG. 1A): inhibited Aβ aggregation; dissolution of preformed Aβ aggregates (preformed Aβ aggregates): dissolved preformed Aβ aggregates; effectiveness toward zinc-free aggregates (neuron cells; zinc-free aggregates, FIG. 3B): effective; learning in the Morris water maze test [2]: improved learning; GAP43 level [3]: increase in GAP43 level; fAβ level [3]: decrease in fAβ level"
"Oc1c(I)cc(Cl)c2cccnc12 [CQ, reference compound]",,,,,,protected,
